Reference: US8563257B2, “Sensitive and rapid methods of using chimeric receptors to identify autoimmune disease and assess disease severity” (Diagnostic Hybrids, Inc., priority 2000, dated 2013)
Several values for one entry are separate records, joined by “and”; a condition that tells them apart may be missing. Equal values may be shown once. Entries after “also recorded” stand apart in the source; their conditions may differ.

What was measured:
[1] = tested on: CHO-RMc4luc cells; test: Alternate glucocorticoids vs. dexamethasone in the non-starved CHO-RMc4 assay; assay type: cell-based, Chinese hamster; settings: for signal intensity (RLU) compared to 40 μM dexamethasone: FIG. 17
Protocol: The data was collected in accordance with the protocol outlined in Example 17. The data was calculated as the difference (Δ) in RLU values or SRR % values for each glucocorticoid (GC) concentration by subtracting the RLU value or SRR % value for the Normal control at that concentration from the RLU value or SRR % value for the Positive control at that concentration, respectively.
Four GCs were examined in this study: i) Prednisone (Sigma); ii) Hydrocortisone (Sigma); iii) Fluticasone Propionate (Sigma); and iv) Cortisone (Sigma). A stock concentration (100 mM) of each GC was made in DMSO. 1:10 (10 mM) and 1:100 (1 mM) dilutions, in DMSO, were then made from the 100 mM stock. All DMSO/GC stocks were clear with no visible precipitate.
Growth Media containing different concentrations of each GC were made as follows: i) 100 μM GC Medium: 5 μL of 100 mM GC Stock+5 mL SR097 (w/o Dex); ii) 50 μM GC Medium: 2.5 μL of 100 mM GC Stock+5 mL SR097 (w/o Dex); iii) 10 μM GC Medium: 5 μL of 10 mM GC Stock+5 mL SR097 (w/o Dex); iii) 1 μM GC Medium: 5 μL of 1 mM GC Stock+5 mL SR097 (w/o Dex); and iv) 0.1 μM GC Medium: 0.5 μL of 1 mM GC Stock+5 mL SR097 (w/o Dex). […] Additional controls included Growth Medium containing 1 μl/ml dimethylsulfoxide (DMSO) as a solvent control and Growth Medium without any glucocorticoids.
Each assay was performed by using two (2) microwell plates for each glucocorticoid tested. The sample layouts for each plate are identified below: […]

[2] = tested on: CHO-RMc4luc cells; test: Effect of dexamethasone on starved CHO-RMc4luc cells (luciferase); assay type: cell-based, Chinese hamster; settings: for % of S/B, Patient #18 Serum: 0 uM = 100; for RLU, Patient #18 Serum, Average / S/B, Patient #18 Serum / RLU, Patient #18 Serum, Test 1-3 / RLU, Reference Serum, Avg / RLU, Reference Serum, Test 1-3: starved cells; for RLU, Patient #18 Serum, Test 1-3 / RLU, Reference Serum, Test 1-3: listed as DEX
Protocol: CHO-Rluc (041307A) and CHO-RMc4luc (062707, P8, 3e6/ml) cells were each brought up in 5 ml CHO growth media.
The cells were then rinsed with reaction buffer and serum (diluted 1:11) was added to 100 μl of reaction buffer already in the well. Serums used were: i) reference 121506R; ii) PC 121506P; and iii) patient #18 TSI serum.
After 4 hours of induction the plates were lysed with 75 ul of Bright Glo®, lysed for 5 minutes, and then read on a Veritas luminometer.

[3] = glucocorticoid 0.1 μM in Growth Medium
[4] = glucocorticoid 1 μM in Growth Medium
[5] = glucocorticoid 10 μM in Growth Medium
[6] = glucocorticoid 50 μM in Growth Medium
[7] = glucocorticoid 100 μM in Growth Medium
[8] = 40 μM in Growth Medium (control)

## CCC(=O)O[C@]1(C(=O)SCF)[C@H](C)C[C@H]2[C@@H]3C[C@H](F)C4=CC(=O)C=C[C@]4(C)[C@@]3(F)[C@@H](O)C[C@@]21C [Fluticasone Proprionate, Fluticasone Propionate]
[1]
  signal intensity (RLU) compared to 40 μM dexamethasone: equal signal intensities
[1]; [3]
  Δ (positive - normal) RLU: 9768 RLU
  Δ (positive - normal) SRR % s: 161%
[1]; [4]
  Δ (positive - normal) RLU: 8806 RLU
  Δ (positive - normal) SRR % s: 148%
[1]; [5]
  Δ (positive - normal) RLU: 8774 RLU
  Δ (positive - normal) SRR % s: 168%
[1]; [6]
  Δ (positive - normal) RLU: 6996 RLU
  Δ (positive - normal) SRR % s: 137%
[1]; [7]
  Δ (positive - normal) RLU: 6366 RLU
  Δ (positive - normal) SRR % s: 155%

## C[C@]12CCC(=O)C=C1CC[C@@H]1[C@@H]2C(=O)C[C@@]2(C)[C@H]1CC[C@]2(O)C(=O)CO [Cortisone]
[1]
  signal intensity (RLU) compared to 40 μM dexamethasone: equivalent to dexamethasone; also recorded: equal signal intensities
[1]; [3]
  Δ (positive - normal) RLU: 10494 RLU
  Δ (positive - normal) SRR % s: 169%
[1]; [4]
  Δ (positive - normal) RLU: 9474 RLU
  Δ (positive - normal) SRR % s: 151%
[1]; [5]
  Δ (positive - normal) RLU: 9847 RLU
  Δ (positive - normal) SRR % s: 151%
[1]; [6]
  Δ (positive - normal) RLU: 8738 RLU
  Δ (positive - normal) SRR % s: 162%
[1]; [7]
  Δ (positive - normal) RLU: 8106 RLU
  Δ (positive - normal) SRR % s: 176%

## C[C@]12C=CC(=O)C=C1CC[C@@H]1[C@@H]2C(=O)C[C@@]2(C)[C@H]1CC[C@]2(O)C(=O)CO [Prednisone]
[1]
  signal intensity (RLU) compared to 40 μM dexamethasone: equal signal intensities
[1]; [3]
  Δ (positive - normal) RLU: 8717 RLU
  Δ (positive - normal) SRR % s: 150%
[1]; [4]
  Δ (positive - normal) RLU: 8219 RLU
  Δ (positive - normal) SRR % s: 133%
[1]; [5]
  Δ (positive - normal) RLU: 8429 RLU
  Δ (positive - normal) SRR % s: 142%
[1]; [6]
  Δ (positive - normal) RLU: 8107 RLU
  Δ (positive - normal) SRR % s: 165%

## C[C@]12CCC(=O)C=C1CC[C@@H]1[C@@H]2[C@@H](O)C[C@@]2(C)[C@H]1CC[C@]2(O)C(=O)CO [Hydrocortisone]
[1]
  signal intensity (RLU) compared to 40 μM dexamethasone: equivalent to dexamethasone; also recorded: equal signal intensities
[1]; [3]
  Δ (positive - normal) RLU: 9889 RLU
  Δ (positive - normal) SRR % s: 158%
[1]; [4]
  Δ (positive - normal) RLU: 9149 RLU
  Δ (positive - normal) SRR % s: 155%
[1]; [5]
  Δ (positive - normal) RLU: 9757 RLU
  Δ (positive - normal) SRR % s: 153%
[1]; [6]
  Δ (positive - normal) RLU: 8950 RLU
  Δ (positive - normal) SRR % s: 178%
[1]; [7]
  Δ (positive - normal) RLU: 8348 RLU
  Δ (positive - normal) SRR % s: 180%

## C[C@@H]1C[C@H]2[C@@H]3CCC4=CC(=O)C=C[C@]4(C)[C@@]3(F)[C@@H](O)C[C@]2(C)[C@@]1(O)C(=O)CO [Dexamethasone, dexamethasone]
[2]; DEX 12.5 uM
  % of S/B, Patient #18 Serum: 180%
  RLU, Patient #18 Serum, Average: 5165 RLU
  S/B, Patient #18 Serum: 39.8
  RLU, Patient #18 Serum, Test 1-3: 4710 RLU and 5456 RLU and 5330 RLU
[2]; DEX 25 uM
  % of S/B, Patient #18 Serum: 183%
  RLU, Patient #18 Serum, Average: 5194 RLU
  RLU, Reference Serum, Avg: 127 RLU
  S/B, Patient #18 Serum: 40.6
  RLU, Patient #18 Serum, Test 1-3: 5172 RLU and 5151 RLU and 5260 RLU
  RLU, Reference Serum, Test 1-3: 129 RLU and 132 RLU
[2]; DEX 40 uM
  % of S/B, Patient #18 Serum: 182%
  RLU, Patient #18 Serum, Average: 5092 RLU
  RLU, Reference Serum, Avg: 126 RLU
  S/B, Patient #18 Serum: 40.4
  RLU, Patient #18 Serum, Test 1-3: 5039 RLU and 5198 RLU and 5038 RLU
  RLU, Reference Serum, Test 1-3: 128 RLU
[2]; DEX 50 uM
  % of S/B, Patient #18 Serum: 181%
  RLU, Patient #18 Serum, Average: 5023 RLU
  RLU, Reference Serum, Avg: 125 RLU
  S/B, Patient #18 Serum: 40.1
  RLU, Patient #18 Serum, Test 1-3: 4861 RLU and 5298 RLU and 4909 RLU
  RLU, Reference Serum, Test 1-3: 135 RLU
[2]; DEX 100 uM
  % of S/B, Patient #18 Serum: 140%
  RLU, Patient #18 Serum, Average: 3492 RLU
  RLU, Reference Serum, Avg: 112 RLU
  S/B, Patient #18 Serum: 31.1
  RLU, Patient #18 Serum, Test 1-3: 3542 RLU and 3414 RLU and 3521 RLU
[2]; DEX 12. uM
  RLU, Reference Serum, Avg: 129 RLU
  RLU, Reference Serum, Test 1-3: 129 RLU and 141 RLU
[1]; [8]
  Δ (positive - normal) RLU: 9375 RLU
  Δ (positive - normal) SRR % s: 282%
